Results published in PubChem BioAssay (NCI).
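Cultured in 96-well plates, cells were exposed to test compound for 48 hours across five concentrations. The concentration for 50% growth inhibition is given as GI50. TGI: concentration producing complete growth inhibition.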

Tests used:
Assay in all cases: growth of human tumour cells (NCI), 48 h
ACHN renal = tested on: ACHN renal
OVCAR-5 ovarian = tested on: OVCAR-5 ovarian
SK-OV-3 ovarian = tested on: SK-OV-3 ovarian
DU-145 prostate = tested on: DU-145 prostate
T-47D breast = tested on: T-47D breast
SK-MEL-2 melanoma = tested on: SK-MEL-2 melanoma
HL-60(TB) leukemia = tested on: HL-60(TB) leukemia
KM12 colon = tested on: KM12 colon
OVCAR-8 ovarian = tested on: OVCAR-8 ovarian
OVCAR-4 ovarian = tested on: OVCAR-4 ovarian
SK-MEL-5 melanoma = tested on: SK-MEL-5 melanoma
IGROV1 ovarian = tested on: IGROV1 ovarian
UACC-62 melanoma = tested on: UACC-62 melanoma
PC-3 prostate = tested on: PC-3 prostate
SK-MEL-28 melanoma = tested on: SK-MEL-28 melanoma
A498 renal = tested on: A498 renal
EKVX NSCLC = tested on: EKVX NSCLC
RPMI-8226 leukemia = tested on: RPMI-8226 leukemia
NCI-H522 lung = tested on: NCI-H522 lung
SF-268 CNS = tested on: SF-268 CNS
NCI-H23 lung = tested on: NCI-H23 lung
SNB-75 CNS = tested on: SNB-75 CNS
SN12C renal = tested on: SN12C renal
NCI/ADR-RES ovarian = tested on: NCI/ADR-RES ovarian
NCI-H226 lung = tested on: NCI-H226 lung
OVCAR-3 ovarian = tested on: OVCAR-3 ovarian
K-562 leukemia = tested on: K-562 leukemia
HT29 colon = tested on: HT29 colon
786-0 renal = tested on: 786-0 renal
MDA-MB-231 breast = tested on: MDA-MB-231 breast
HCT-15 colon = tested on: HCT-15 colon
BT-549 breast = tested on: BT-549 breast
TK-10 renal = tested on: TK-10 renal
HCT-116 colon = tested on: HCT-116 colon
HS 578T breast = tested on: HS 578T breast
MDA-MB-435 = tested on: MDA-MB-435
UO-31 renal = tested on: UO-31 renal
RXF 393 renal = tested on: RXF 393 renal
COLO 205 colon = tested on: COLO 205 colon
SF-539 CNS = tested on: SF-539 CNS
SNB-19 CNS = tested on: SNB-19 CNS
CAKI-1 renal = tested on: CAKI-1 renal
SF-295 CNS = tested on: SF-295 CNS
U251 CNS = tested on: U251 CNS
A549 NSCLC = tested on: A549 NSCLC
MOLT-4 leukemia = tested on: MOLT-4 leukemia
M14 melanoma = tested on: M14 melanoma
UACC-257 melanoma = tested on: UACC-257 melanoma
MCF7 breast = tested on: MCF7 breast
SW-620 colon = tested on: SW-620 colon
NCI-H460 lung = tested on: NCI-H460 lung
LOX IMVI melanoma = tested on: LOX IMVI melanoma
SR leukemia = tested on: SR leukemia

Q: Which GI50 (ACHN renal) does the source give for `COc1ccc(-c2ccc(-c3ccc(C(=N)N)cc3)s2)cc1Cl` here?
A: 1.62 µM

Q: What about the TGI (ACHN renal) of the same compound?
A: 2.97 µM

Q: And the GI50 (OVCAR-5 ovarian)?
A: 1.55 µM

Q: And the TGI (OVCAR-5 ovarian)?
A: 2.88 µM

Q: And the GI50 (SK-OV-3 ovarian)?
A: 1980 nM

Q: What about the TGI (SK-OV-3 ovarian) of the same compound?
A: 4.46 µM

Q: And the GI50 (DU-145 prostate)?
A: 1.7 µM

Q: And the TGI (DU-145 prostate)?
A: 3.06 µM

Q: What about the GI50 (T-47D breast) of the same compound?
A: 1850 nM

Q: And the TGI (T-47D breast)?
A: 4.33 µM

Q: What about the GI50 (SK-MEL-2 melanoma) of the same compound?
A: 2.05 µM

Q: And the TGI (SK-MEL-2 melanoma)?
A: 4.2 µM

Q: What about the GI50 (HL-60(TB) leukemia) of the same compound?
A: 1.91 µM

Q: What about the TGI (HL-60(TB) leukemia) of the same compound?
A: 4.05 µM

Q: And the GI50 (KM12 colon)?
A: 1.75 µM

Q: And the TGI (KM12 colon)?
A: 3.13 µM

Q: With `COc1ccc2[nH]cc(Cc3c[nH]c4ccc(OC)cc34)c2c1` as the compound, how does the GI50 (OVCAR-8 ovarian) read?
A: 17.4 µM

Q: What about the TGI (OVCAR-8 ovarian) of the same compound?
A: 37.4 µM

Q: And the GI50 (OVCAR-4 ovarian)?
A: 17.6 µM

Q: And the TGI (OVCAR-4 ovarian)?
A: 40.3 µM

Q: And the GI50 (SK-MEL-5 melanoma)?
A: 16.5 µM

Q: What about the TGI (SK-MEL-5 melanoma) of the same compound?
A: 30.1 µM

Q: What about the GI50 (IGROV1 ovarian) of the same compound?
A: 15.4 µM

Q: And the TGI (IGROV1 ovarian)?
A: 33.1 µM

Q: And the GI50 (UACC-62 melanoma)?
A: 16 µM

Q: What about the TGI (UACC-62 melanoma) of the same compound?
A: 29.5 µM

Q: What about the GI50 (PC-3 prostate) of the same compound?
A: 19.3 µM

Q: What about the TGI (PC-3 prostate) of the same compound?
A: 39.4 µM

Q: What about the GI50 (SK-MEL-28 melanoma) of the same compound?
A: 21.8 µM

Q: What about the TGI (SK-MEL-28 melanoma) of the same compound?
A: 53 µM

Q: What about the GI50 (A498 renal) of the same compound?
A: 3.32 µM

Q: And the TGI (A498 renal)?
A: 14.5 µM

Q: What about the GI50 (EKVX NSCLC) of the same compound?
A: 17.9 µM

Q: And the TGI (EKVX NSCLC)?
A: 45.9 µM

Q: What about the GI50 (RPMI-8226 leukemia) of the same compound?
A: 20.8 µM

Q: What about the TGI (RPMI-8226 leukemia) of the same compound?
A: 40.3 µM

Q: What about the GI50 (NCI-H522 lung) of the same compound?
A: 25.5 µM

Q: And the TGI (NCI-H522 lung)?
A: 77.3 µM

Q: What about the GI50 (SF-268 CNS) of the same compound?
A: 22.7 µM

Q: And the TGI (SF-268 CNS)?
A: 62.5 µM

Q: And the GI50 (ACHN renal)?
A: 20 µM

Q: And the TGI (ACHN renal)?
A: 43.9 µM

Q: What about the GI50 (NCI-H23 lung) of the same compound?
A: 21.7 µM

Q: And the TGI (NCI-H23 lung)?
A: 40.7 µM

Q: And the GI50 (OVCAR-5 ovarian)?
A: 24.8 µM

Q: What about the TGI (OVCAR-5 ovarian) of the same compound?
A: 58 µM

Q: And the GI50 (SNB-75 CNS)?
A: 13.7 µM

Q: What about the TGI (SNB-75 CNS) of the same compound?
A: 50.6 µM

Q: What about the GI50 (SN12C renal) of the same compound?
A: 17.5 µM

Q: And the TGI (SN12C renal)?
A: 31.3 µM

Q: What about the GI50 (NCI/ADR-RES ovarian) of the same compound?
A: 20.4 µM

Q: What about the TGI (NCI/ADR-RES ovarian) of the same compound?
A: 42.1 µM

Q: What about the GI50 (NCI-H226 lung) of the same compound?
A: 18.5 µM

Q: And the TGI (NCI-H226 lung)?
A: 48.9 µM

Q: What about the GI50 (OVCAR-3 ovarian) of the same compound?
A: 13.3 µM

Q: What about the TGI (OVCAR-3 ovarian) of the same compound?
A: 31.3 µM

Q: And the GI50 (DU-145 prostate)?
A: 15.2 µM

Q: And the TGI (DU-145 prostate)?
A: 34 µM

Q: What about the GI50 (K-562 leukemia) of the same compound?
A: 19.1 µM

Q: And the TGI (K-562 leukemia)?
A: 71.4 µM

Q: What about the GI50 (HT29 colon) of the same compound?
A: 17.9 µM

Q: And the TGI (HT29 colon)?
A: 32.3 µM

Q: And the GI50 (786-0 renal)?
A: 38.9 µM

Q: And the TGI (786-0 renal)?
A: > 100 µM

Q: What about the GI50 (MDA-MB-231 breast) of the same compound?
A: 4.65 µM

Q: What about the TGI (MDA-MB-231 breast) of the same compound?
A: 19.4 µM

Q: And the GI50 (HCT-15 colon)?
A: 14.1 µM

Q: And the TGI (HCT-15 colon)?
A: 27.2 µM

Q: And the GI50 (BT-549 breast)?
A: 17.4 µM

Q: And the TGI (BT-549 breast)?
A: 36.1 µM

Q: And the GI50 (TK-10 renal)?
A: 15.9 µM

Q: And the TGI (TK-10 renal)?
A: 44 µM

Q: And the GI50 (HCT-116 colon)?
A: 15.8 µM

Q: What about the TGI (HCT-116 colon) of the same compound?
A: 29.2 µM

Q: And the GI50 (HS 578T breast)?
A: 15.6 µM

Q: And the TGI (HS 578T breast)?
A: 49.6 µM

Q: And the GI50 (MDA-MB-435)?
A: 18.1 µM

Q: What about the TGI (MDA-MB-435) of the same compound?
A: 35.3 µM

Q: And the GI50 (UO-31 renal)?
A: 27.5 µM

Q: And the TGI (UO-31 renal)?
A: > 100 µM

Q: What about the GI50 (RXF 393 renal) of the same compound?
A: 28 µM

Q: What about the TGI (RXF 393 renal) of the same compound?
A: 54.7 µM

Q: What about the GI50 (COLO 205 colon) of the same compound?
A: 18.6 µM

Q: What about the TGI (COLO 205 colon) of the same compound?
A: 35.3 µM

Q: And the GI50 (SK-MEL-2 melanoma)?
A: 17.4 µM

Q: What about the TGI (SK-MEL-2 melanoma) of the same compound?
A: 43.3 µM

Q: What about the GI50 (SF-539 CNS) of the same compound?
A: 17.2 µM

Q: And the TGI (SF-539 CNS)?
A: 33.1 µM

Q: And the GI50 (SNB-19 CNS)?
A: 29.3 µM

Q: And the TGI (SNB-19 CNS)?
A: 79.8 µM

Q: What about the GI50 (HL-60(TB) leukemia) of the same compound?
A: 44.2 µM

Q: What about the TGI (HL-60(TB) leukemia) of the same compound?
A: > 100 µM

Q: What about the GI50 (CAKI-1 renal) of the same compound?
A: 19.9 µM

Q: What about the TGI (CAKI-1 renal) of the same compound?
A: 44.4 µM

Q: What about the GI50 (SF-295 CNS) of the same compound?
A: 16.6 µM

Q: What about the TGI (SF-295 CNS) of the same compound?
A: 34.5 µM

Q: What about the GI50 (U251 CNS) of the same compound?
A: 15.9 µM

Q: What about the TGI (U251 CNS) of the same compound?
A: 29.4 µM

Q: And the GI50 (A549 NSCLC)?
A: 19.1 µM

Q: What about the TGI (A549 NSCLC) of the same compound?
A: 46.9 µM

Q: And the GI50 (MOLT-4 leukemia)?
A: 37.4 µM

Q: And the TGI (MOLT-4 leukemia)?
A: > 100 µM

Q: What about the GI50 (M14 melanoma) of the same compound?
A: 20.3 µM

Q: What about the TGI (M14 melanoma) of the same compound?
A: 44 µM

Q: What about the GI50 (UACC-257 melanoma) of the same compound?
A: 32.4 µM

Q: And the TGI (UACC-257 melanoma)?
A: 88.1 µM

Q: And the GI50 (MCF7 breast)?
A: 28.7 µM

Q: What about the TGI (MCF7 breast) of the same compound?
A: > 100 µM

Q: What about the GI50 (SW-620 colon) of the same compound?
A: 18.3 µM

Q: And the TGI (SW-620 colon)?
A: 32.2 µM

Q: What about the GI50 (NCI-H460 lung) of the same compound?
A: 22.7 µM

Q: And the TGI (NCI-H460 lung)?
A: 63.8 µM

Q: And the GI50 (LOX IMVI melanoma)?
A: 14.9 µM

Q: And the TGI (LOX IMVI melanoma)?
A: 28.1 µM

Q: What about the GI50 (KM12 colon) of the same compound?
A: 19 µM

Q: And the TGI (KM12 colon)?
A: 41.4 µM

Q: And the GI50 (SR leukemia)?
A: 77.8 µM

Q: And the TGI (SR leukemia)?
A: > 100 µM
